Measured values as given in patent EP0458892B1, “USE OF CHLORMETHIAZOLE IN THE MANUFACTURE OF A MEDICAMENT FOR THE PREVENTION AND/OR TREATMENT OF NEURODEGENERATION” (priority 1989, dated 1990).

Tests used:
[1] = system: CA1/CA2 hippocampal neurones; assay: Gerbil carotid occlusion ischaemia, test compound administered following induction of ischaemia; format: in vivo; settings: gerbils; for % Damage to CA1/CA2 Hippocampal Neurones: assessed after 4 days
Text: (§1) The detailed mechanisms that underlie ischaemia-induced degeneration of hippocampal neurones have yet to be clarified, but the above mentioned gerbil test system has been widely used as a predictive model of neuroprotective activity (see, for example, B.J. Alps, C. Calder, W.K. Hass and A.D. Wilson, Brit. J. Pharmacol., 1988, 93, 877-883; R. Gill, A.C. Foster and G.N. Woodruff, J. Neuroscience, 1987, 7, 3343-3349).
(§2) Ischaemia was induced in gerbils by occlusion of the carotid arteries following the accepted general procedure as described in, for example, EP 230 370 and R. Gill, A.C. Foster and G.N. Woodruff, J. Neuroscience, 1987, 7, 3343-3349.
(§3) Ischaemia was induced in gerbils by 10 minute occlusion of both carotid arteries. Restoration of blood flow after occlusion was checked visually and the animals were allowed to survive for 4 days. The extent of neuronal degeneration in the hippocampus was then assessed. The test compounds were administered (i.p.) as a single dose 30 minutes prior to occlusion.
The general procedure described in (a) above was followed except that the test compound was administered (i.p.) as a single dose at the stated time following the end of the occlusion. No administration was made prior to the occlusion.

[2] = system: CA1/CA2 hippocampal neurones; assay: Gerbil carotid occlusion ischaemia, test compound administered prior to induction of ischaemia; format: in vivo; settings: gerbils; for % Damage to CA1/CA2 Hippocampal Neurones: assessed after 4 days
Text: as §1, §2, §3

Cc1ncsc1CCCl [Chlormethiazole ethanedisulphonate]
% Damage to CA1/CA2 Hippocampal Neurones ([1]; 50mg/kg i.p. single dose 30 minutes after the end of 10 minute occlusion): 69.4 ± 6.9%
% Damage to CA1/CA2 Hippocampal Neurones ([1]; 100mg/kg i.p. single dose 30 minutes after the end of 10 minute occlusion): 12.8 ± 10.4%
% Damage to CA1/CA2 Hippocampal Neurones ([1]; 100mg/kg i.p. single dose 1 hour after the end of 10 minute occlusion): 14.3 ± 8.7%
% Damage to CA1/CA2 Hippocampal Neurones ([1]; 100mg/kg i.p. single dose 2 hours after the end of 10 minute occlusion): 7.25 ± 4.8%
% Damage to CA1/CA2 Hippocampal Neurones ([1]; 100mg/kg i.p. single dose 6 hours after the end of 10 minute occlusion): 45.6 ± 14%
% Damage to CA1/CA2 Hippocampal Neurones ([2]; 50mg/kg i.p. single dose 30 minutes prior to 10 minute occlusion of both carotid arteries): 37.6 ± 13.4%
% Damage to CA1/CA2 Hippocampal Neurones ([2]; 100mg/kg i.p. single dose 30 minutes prior to 10 minute occlusion of both carotid arteries): < 5%

CC(C(O)c1ccc(O)cc1)N1CCC(Cc2ccccc2)CC1 (centres unmarked) [Ifenprodil]
% Damage to CA1/CA2 Hippocampal Neurones ([2]; 4mg/kg i.p. single dose 30 minutes prior to 10 minute occlusion of both carotid arteries): 62 ± 8.0%

C[C@]12N[C@H](Cc3ccccc31)c1ccccc12 [MK 801]
% Damage to CA1/CA2 Hippocampal Neurones ([2]; 3mg/kg i.p. single dose 30 minutes prior to 10 minute occlusion of both carotid arteries): < 5%

Cc1ncsc1CCCl [chlormethiazole, 5-(2-chloroethyl)-4-methylthiazole]
damage to the CA1/CA2 hippocampal neurones (result in words) ([1]; i.p. single dose after the ischaemic insult, summary of Table 2): effective in reducing the damage to the CA1/CA2 hippocampal neurones
damage to the CA1/CA2 hippocampal neurones (result in words) ([2]; i.p. single dose 30 minutes prior to occlusion, summary of Table 1): effective in reducing the damage to the CA1/CA2 hippocampal neurones
